Earlier results in US10821087B2, “Stabilized injectable emulsion of Propofol and Ketamine” (NEON LABORATORIES LIMITED, priority 2015, dated 2020).

System: Propofol induced pain
Settings: 100 μg/kg Ketamine administered just before Propofol

For `CNC1(c2ccccc2Cl)CCCCC1=O` (centres unmarked) [Ketamine], the adverse hemodynamic effects is listed as “without significant adverse hemodynamic effects” and the “incidence and intensity of Propofol induced pain” value is listed as “reduce the incidence and intensity of Propofol induced pain”.
